Test results reported in ChEMBL document CHEMBL1126158, “Conformational analyses and molecular-shape comparisons of a series of indanone-benzylpiperidine inhibitors of acetylcholinesterase” (J Med Chem, 1992).

Molecular target: Acetylcholinesterase (Homo sapiens, UniProt P22303)
Assay: Inhibition of acetylcholinesterase activity

Sequence of Acetylcholinesterase (P22303 whole entry): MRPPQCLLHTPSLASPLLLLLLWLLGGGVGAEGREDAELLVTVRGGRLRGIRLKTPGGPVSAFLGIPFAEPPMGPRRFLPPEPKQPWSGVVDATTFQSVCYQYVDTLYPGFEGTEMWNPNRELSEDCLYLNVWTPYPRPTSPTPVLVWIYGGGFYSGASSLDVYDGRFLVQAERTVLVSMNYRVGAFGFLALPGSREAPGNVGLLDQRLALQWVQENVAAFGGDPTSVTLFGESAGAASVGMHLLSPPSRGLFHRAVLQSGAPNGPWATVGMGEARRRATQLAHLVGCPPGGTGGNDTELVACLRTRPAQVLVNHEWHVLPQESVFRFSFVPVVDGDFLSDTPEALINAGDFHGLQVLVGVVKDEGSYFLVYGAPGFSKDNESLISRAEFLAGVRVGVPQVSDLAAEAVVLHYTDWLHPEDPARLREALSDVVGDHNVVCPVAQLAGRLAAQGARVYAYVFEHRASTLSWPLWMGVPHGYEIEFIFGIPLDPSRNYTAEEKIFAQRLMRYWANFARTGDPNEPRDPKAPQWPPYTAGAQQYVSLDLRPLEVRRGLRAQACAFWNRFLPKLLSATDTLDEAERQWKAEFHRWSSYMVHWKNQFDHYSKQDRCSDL

CN1CCC(C[C@@H]2Cc3ccccc3C2=O)CC1
IC50: 5.3 nM

CC1CCN(Cc2cccc3ccccc23)CC1
IC50: 220 nM

CC1CCN(Cc2ccc3ccccc3c2)CC1
IC50: 2900 nM

CN1CCC(/C=C/C=C2\Cc3ccccc3C2=O)CC1
IC50: 3 nM

CN1CCC(CC/C=C2\Cc3ccccc3C2=O)CC1
IC50: 0.82 nM

CN1CCN(CC2Cc3ccccc3C2=O)CC1 (centres undefined)
IC50: 94 nM

CC1CCN(CC2Cc3ccccc3C2=O)CC1 (centres undefined)
IC50: 480 nM

CN1CCC(/C=C2\Cc3ccccc3C2=O)CC1
IC50: 8.4 nM

CN1CCC(=C2Cc3ccccc3C2=O)CC1
IC50: 1200 nM

Cc1ccccc1CN1CCC(C)CC1
IC50: 10 nM

CC1CCN(Cc2ccccc2)CC1
IC50: 5.3 nM

CN1CCC(CCC2C(=O)Nc3ccccc3C2=O)CC1 (centres undefined)
IC50: 4.2 nM

CN1CCC(CCCC2Cc3ccccc3C2=O)CC1 (centres undefined)
IC50: 1.5 nM

CC1CCN(CCc2ccccc2)CC1
IC50: 180 nM

CC1CCN(CC2CCCCC2)CC1
IC50: 8.9 nM

CN1CCC(CCN2C(=O)c3ccccc3C2=O)CC1
IC50: 0.9 nM

CN1CCC(C[C@H]2Cc3ccccc3C2=O)CC1
IC50: 7.7 nM

CC1CCN(Cc2ccccc2[N+](=O)[O-])CC1
IC50: 160 nM

CN1CCC(C2Cc3ccccc3C2=O)CC1 (centres undefined)
IC50: 3300 nM
